Source: patent US20260315565A1, “ANTIOXIDANT-CONTAINING EYE DROP FORMULATIONS AND METHODS OF PREVENTION AND/OR TREATMENT USING SAME” (Marizyme, Inc., priority 2022, published 2026)

Tests used:
[1] = accelerated stability of ascorbic acid in eye drop formulations (UV-VIS, 260 nm); format: physicochemical; settings: stored at 40° C. for 30 days; pH 3.5 vs pH 5
Experimental: (§1) Namely, appropriate amounts of the various components were weighed and then mixed with “Water for Injection” (WFI) at room temperature in a laminar flow hood to achieve the concentrations listed in Table 1. The various components were dissolved in the WFI using a magnetic stir bar and stirring at 350 rpm, or any appropriate mixing speed, until dissolution was complete. The final pH of each formulation was adjusted to pH 3.5 or pH 5.0, as listed in Table 1, using 5N HCl or 5N NaOH, respectively. The resulting solutions were then passed through a 0.21, […] filter while filling sterile vials with the respective formulations for use in stability studies. […]
(§2) At each point in the testing schedule, physical properties, such as clarity, color, odor, particle count and the like, of the formulations stored in the pulled vials were examined by physical observation. Concentrations of the antioxidants were also measured, and analytical tests of the formulations in the vials were carried out according to the protocol listed in Table 3.
(§3) The analytical assay method for stability testing of total thiols and ascorbic acid in eyedrop formulations (UV-VIS in Table 3) are performed as follows. […] Both components are measured on one sample preparation. […] By applying the appropriate dilution and conversion factors, the concentration of each component in the formulation can be calculated. […]

[2] = accelerated stability of glutathione (total thiols) in eye drop formulations (UV-VIS with DTNB, 412 nm); format: physicochemical; settings: stored at 40° C. for 30 days
Experimental: as §1, §2, §3

Row | SMILES | stability of ascorbic acid [1] | effect of higher molar ratios of ascorbic acid on glutathione stability [2]
1 | O=C1O[C@H]([C@@H](O)CO)C(O)=C1O [ascorbic acid, L-ascorbic acid] | more stable at the lower pH of 3.5 compared to pH 5 | 
2 | N[C@@H](CCC(=O)N[C@@H](CS)C(=O)NCC(=O)O)C(=O)O [glutathione, L-glutathione] |  | destabilizing effect of higher molar ratios of ascorbic acid on glutathione
